In patent US9976183B2, “Biomarkers for cancers responsive to modulators of HEC1 activity” (TAIVEX THERAPEUTICS CORPORATION, priority 2011, dated 2018):
Each block holds one compound with its values, some of them ahead of it.

How the values were obtained:
Assay type in all cases: cell-based
[1] = system: Huh7; test: Drug sensitivity, MTS cell viability assay (GI50)
Method: (§1) Drug sensitivity: Cell lines were screened for drug sensitivity by treatment with specified drugs 24 hours after seeding in appropriate seeding numbers into 96 well plates containing low glucose DME with 10% FBS. The drug was added to the plate in triplicate wells, and the cells are incubated in drug treated medium for 96 hours before cell viability was determined by MTS assay using CellTiter 96® Aqueous non-radioactive cell proliferation assay system (Promega, Madison, Wis. 53711 USA). The MTS assay was performed according to the manufacturer's instructions. Optical density was measured using a Bio-Tek 340 spectrophotometer (Bio-Tek, Winooski, Vt. 05404) and optical readings were then processed in Excel (Microsoft, Redmond, Wash. 98052-7329) and GraphPad Prism 5 linear regression software (GraphPad Software, La Jolla, Calif. 92037 USA) to determine concentration-response curves for calculating relative GI50s. […] The % growth inhibition of the test drug on cells were calculated as: [1−(Test Value)/(Control Value)]×100; these values were used to plot concentration-response curves, and then analyzed with linear regression software.

[2] = system: MB-231; test: Synergy of Hec1 inhibitor with cytotoxic drug (combination index, MTS)
Method: (§2) Synergy: GI50s for selected drugs were determined and used to calculate a concentration ratio for use synergy assays with Hec1 inhibitors. Cells were treated with drugs 24 hours after being seeded in appropriate seeding numbers into 96 well plates containing low glucose DME with 10% FBS. […] Cell viability was determined by MTS assay using a CellTiter 96® Aqueous non-radioactive cell proliferation assay system (Promega, Madison, Wis. 53711 USA) according to the manufacturer's instructions. Optical density was determined using a Bio-Tek 340 spectrophotometer (Bio-Tek, Winooski, Vt. 05404) and were then processed using Excel (Microsoft, Redmond, Wash. 98052-7329) and GraphPad Prism 5 linear regression software (GraphPad Software, La Jolla, Calif. 92037 USA) to determine concentration-response curves for calculating relative GI50s. Synergy was determined by calculating a combination index value using the formula CI (combination index)=(CA,X/ICx,A)+(CB,X/ICx,B), where CA,X and CB,X are the concentrations of drug A and drug B used in combination to achieve x % drug effect. ICx,A and ICx,B are the concentrations for single agents to achieve the same effect.
(§3) Hec1 inhibitor-responsive cancer cells used for screening were treated with a mixture of Hec1 inhibitor and select anti-cancer drug at appropriate concentration ratios and evaluated for cell viability.

[3] = system: MB-468; test: as above
Method: as §2, §3

[4] = system: HeLa; test: as above
Method: as §2, §3

[5] = system: K562; test: as above
Method: as §2, §3

[6] = system: K562R; test: Drug sensitivity, MTS assay, drug resistant cell line; settings: Homo sapiens, K-562R, Gleevec resistant myelogenous leukemia
Method: as §1

[7] = system: NCI/ADR-RES; test: as above; settings: Homo sapiens, multi-drug resistant uterine sarcoma
Method: as §1

[8] = system: MEX-SA/Dx5; test: as above; settings: MEX-SA/Dx5, multi-drug resistant uterine sarcoma
Method: as §1

[9] = system: PCL/PRF/5; test: Synergy of Hec1 inhibitor with cytotoxic drug (combination index, MTS); parameters: key: CI = (CA,X/ICx,A)+(CB,X/ICx,B) at x% drug effect
Method: as §2, §3

[10] = system: HepG2; test: as above; parameters: key: CI = (CA,X/ICx,A)+(CB,X/ICx,B) at x% drug effect
Method: as §2, §3

[11] = system: Huh7; test: as above; parameters: key to Combination Index: CI = (CA,X/ICx,A)+(CB,X/ICx,B) at x% drug effect
Method: as §2, §3

[12] = system: Hep3B; test: as above; parameters: key to Combination Index: CI = (CA,X/ICx,A)+(CB,X/ICx,B) at x% drug effect
Method: as §2, §3

[13] = system: T47D; test: Drug sensitivity, MTS cell viability assay (GI50); settings: Homo sapiens, 96 hours
Method: as §1

[14] = system: MDA-MB-468; test: Drug sensitivity, MTS cell viability assay (GI50)
Method: as §1

[15] = system: MDA-MB-453; test: Drug sensitivity, MTS cell viability assay (GI50); settings: Homo sapiens, MDA-MB-453, 96 hours
Method: as §1

[16] = system: HeLa; test: Drug sensitivity, MTS cell viability assay (GI50); settings: Homo sapiens, 96 hours
Method: as §1

[17] = system: PLC/PRF/5; test: Drug sensitivity, MTS cell viability assay (GI50); settings: Homo sapiens, PLC/PRF/5, 96 hours
Method: as §1

[18] = system: K562; test: Drug sensitivity, MTS cell viability assay (GI50); settings: Homo sapiens, K562, 96 h
Method: as §1

[19] = system: ZR-75-1; test: Drug sensitivity, MTS cell viability assay (GI50); settings: Homo sapiens, ZR-75-1, 96 hours
Method: as §1

[20] = system: Hs578T; test: Drug sensitivity, MTS cell viability assay (GI50); settings: Homo sapiens, Hs-578T, 96 hours
Method: as §1

[21] = system: HepG2; test: Drug sensitivity, MTS cell viability assay (GI50); settings: Homo sapiens; for GI50: HepG2, 96 hours, MTS
Method: as §1

[22] = system: Hep3B; test: Drug sensitivity, MTS cell viability assay (GI50); settings: Homo sapiens, 96 h
Method: as §1

[23] = system: MDA-MB-231; test: Drug sensitivity, MTS cell viability assay (GI50)
Method: as §1

[24] = in combination with Taxol (paclitaxel)
[25] = in combination with doxorubicin
[26] = Homo sapiens, Huh-7, 96 h, Huh7, 96 hours, MTS

SMILES: COc1ccc(Oc2cc(C)c(-c3csc(NC(=O)c4ccnc(F)c4)n3)c(C)c2)cc1 [compound 101015, 2-fluoro-N-(4-(4-(4-methoxyphenoxy)-2,6-dimethylphenyl)thiazol-2-yl)isonicotinamide]
- Combination Index [2, 24]: 0.98
- Combination Index [2, 25]: 1.75
- Combination Index ([2]; in combination with topotecan): 0.85
- Combination Index ([3]; in combination with Taxol): 1.16
- Combination Index [3, 25]: 1.23
- Combination Index ([3]; in combination with topotecan): 0.74
- Combination Index ([4]; in combination with Taxol): 1.01
- Combination Index [4, 25]: 6.83
- Combination Index ([4]; in combination with topotecan): 1.58
- Combination Index [5, 24]: 0.62
- Combination Index [5, 25]: 0.62
- Combination Index ([5]; in combination with topotecan): 1.12
- GI50 [6]: 26 nM
- GI50 [7]: 21.6 nM
- GI50 [8]: 0.0349 µM
- Combination Index ([9]; in combination with KX01): 1.31
- Combination Index ([9]; in combination with Taxol): 0.99
- Combination Index [9, 25]: 1.65
- Combination Index ([9]; in combination with sorafenib): 1.15
- Combination Index ([9]; in combination with topotecan): 1.17
- Combination Index ([10]; in combination with KX01): 1.68
- Combination Index [10, 25]: 1.74
- Combination Index ([10]; in combination with sorafenib): 0.89
- Combination Index ([10]; in combination with topotecan): 1.92
- Combination Index ([11]; in combination with KX01 (KXO1)): 1.08
- Combination Index [11, 24]: 0.32
- Combination Index [11, 25]: 0.54
- Combination Index ([11]; in combination with sorafenib): 1.08
- Combination Index ([11]; in combination with topotecan): 0.62
- Combination Index ([12]; in combination with KX01): 2.32
- Combination Index ([12]; in combination with Taxol): 2.38
- Combination Index [12, 25]: 2.00
- Combination Index ([12]; in combination with sorafenib): 1.91
- Combination Index ([12]; in combination with topotecan): 1.05

SMILES: CC(=O)O[C@H]1C(=O)[C@@]2(C)[C@H]([C@H](OC(=O)c3ccccc3)[C@]3(O)C[C@H](OC(=O)[C@H](O)[C@@H](NC(=O)c4ccccc4)c4ccccc4)C(C)=C1C3(C)C)[C@]1(OC(C)=O)CO[C@@H]1C[C@@H]2O [paclitaxel]
- GI50 [6]: 34.5 nM
- GI50 [7]: 2330 nM
- GI50 [8]: 6.25 µM
- GI50 ([23]; Homo sapiens, MDA-MB-231, 96 h): 3 nM
- GI50 ([23]; MDA-MB-231, 96 hours): 4.91 nM
- GI50 [13]: 3.19 nM
- GI50 ([14]; Homo sapiens, MDA-MB-468, 96 h): 2.38 nM
- GI50 [15]: 1.42 nM
- GI50 ([1]; Huh7, 96 hours, MTS): 93.5 nM
- GI50 [16]: 7.8 nM
- GI50 [17]: 8.58 nM
- GI50 ([19]; bound given in μM): > 10 µM
- GI50 [20]: 8.39 nM
- GI50 ([21]; bound given in μM): > 50 µM
- IC50 ([21]; HepG2, Taxol-resistant): > 10 µM
- GI50 [22]: 9.47 nM

SMILES: CC[C@@]1(O)C(=O)OCc2c1cc1n(c2=O)Cc2cc3c(CN(C)C)c(O)ccc3nc2-1 [topotecan]
- GI50 ([23]; Homo sapiens, MDA-MB-231, 96 h): 347 nM
- GI50 [13]: 9.43 nM
- GI50 ([14]; Homo sapiens, MDA-MB-468, 96 h): 10.7 nM
- GI50 [15]: 92.3 nM
- GI50 ([1]; Huh7, 96 hours, MTS): 50.9 nM
- GI50 [16]: 637 nM
- GI50 [17]: 174 nM
- GI50 [18]: 36.1 nM
- GI50 [19]: 0.0363 µM
- GI50 [20]: 4960 nM
- GI50 [21]: 0.435 µM
- GI50 [22]: 422 nM

More lines, main results first:

- GI50 ([1]; Huh7, 96 hours, MTS): 27.2 nM
SMILES: O=C(Cc1ccc(-c2ccc(OCCN3CCOCC3)cc2)cn1)NCc1ccccc1 [KX01]

- GI50 [13]: 11.9 nM
- GI50 ([14]; Homo sapiens, MDA-MB-468, 96 h): 28.3 nM
- GI50 ([14]; MDA-MB-468, 96 hours): 27 nM
- GI50 [15]: 158 nM
- GI50 [1, 26]: 183 nM
- GI50 ([1]; Homo sapiens, Huh-7, Huh7, unit inferred): 183 nM
- GI50 [16]: 242 nM
- GI50 [18]: 36.2 nM
- GI50 [21]: 0.746 µM
- GI50 [22]: 248 nM
SMILES: COc1cccc2c1C(=O)c1c(O)c3c(c(O)c1C2=O)C[C@@](O)(C(=O)CO)C[C@@H]3O[C@H]1C[C@H](N)[C@H](O)[C@H](C)O1 [doxorubicin]
- GI50 [17]: 69.7 nM
- GI50 [19]: 0.0929 µM
- GI50 [20]: 711 nM

- GI50 ([23]; Homo sapiens, MDA-MB-231, 96 h): 3040 nM
- GI50 [13]: 1730 nM
- GI50 ([14]; Homo sapiens, MDA-MB-468, 96 h): 3170 nM
- GI50 [15]: 2520 nM
- GI50 [1, 26]: 4500 nM
- GI50 [21]: 8.25 µM
- GI50 [22]: 3680 nM
SMILES: CNC(=O)c1cc(Oc2ccc(NC(=O)Nc3ccc(Cl)c(C(F)(F)F)c3)cc2)ccn1 [sorafenib]
- GI50 [17]: 3760 nM
- GI50 [19]: 4.34 µM
